Measured values published in patent publication US20260285867A1, “IMIDAZOTRIAZINE DERIVATIVES AS IL-17 MODULATORS” (UCB BIOPHARMA SRL, priority 2023, published 2026).

Molecular target: T1, IL-17A (Homo sapiens, UniProt Q16552)
T1 sequence (Q16552 24-155): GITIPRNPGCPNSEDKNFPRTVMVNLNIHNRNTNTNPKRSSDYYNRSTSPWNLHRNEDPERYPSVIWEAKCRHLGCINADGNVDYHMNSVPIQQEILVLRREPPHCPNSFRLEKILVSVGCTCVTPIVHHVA
Test: Inhibition of IL-17A induced IL-6 release from dermal fibroblast cell line (HDF cell line assay)
Type: cell-based
Conditions: HDF cells stimulated with IL-17A 50 pM + TNFα 25 pM, IL-6 release by HTRF
Description: Inhibition of IL-17A Induced IL-6 Release from Dermal Fibroblast Cell Line The purpose of this assay is to test the neutralising ability to IL-17 proteins, in a human primary cell system. Stimulation of normal human dermal fibroblasts (HDF) with IL-17 alone produces only a very weak signal but in combination with certain other cytokines, such as TNFα, a synergistic effect can be seen in the production of inflammatory cytokines, i.e. IL-6. HDFs were stimulated with IL-17A (50 pM) in combination with TNF-α (25 pM). The resultant IL-6 response was then measured using a homogenous time-resolved FRET kit from Cisbio. The kit utilises two monoclonal antibodies, one labelled with Eu-Cryptate (Donor) and the second with d2 or XL665 (Acceptor). The intensity of the signal is proportional to the concentration of IL-6 present in the sample (Ratio is calculated by 665/620×104). The ability of a compound to inhibit IL-17 induced IL-6 release from human dermal fibroblasts is measured in this assay. […] The cells were re-suspended in complete media (5 mL) counted and adjusted to a concentration of 3.125×10^4 cells/mL before being added to the 384 well assay plate (Corning #3701) at 40 μL per well. […] The mixture was incubated at room temperature for 3 h with gentle shaking (<400 rpm) before being read on a Synergy Neo 2 plate reader (Excitation: 330 nm; Emission: […]).

| Compound | pIC50 (listed as 1 (Peak 1)) | pIC50 (listed as 2 (Peak 2)) |
| --- | --- | --- |
| Cc1nonc1C(=O)N[C@H](c1cn2ncc(C3(C(=O)NCC(C)(F)F)CC(C)(O)C3)nc2n1)C1CCC(F)(F)CC1 (single isomer, unassigned) [Example 1] | 7.7 |  |
| Cc1nonc1C(=O)N[C@H](c1cn2ncc(C3(C(=O)NCC(C)(F)F)CC(C)(O)C3)nc2n1)C1CCC(F)(F)CC1 (single isomer, unassigned) [Example 2] |  | 8.4 |
